According to US10745401B2, “Condensed lactam derivative” (Sumitomo Dainippon Pharma Co., Ltd., priority 2018, dated 2020):
pEC50, pIC50, pKi: −log10 of the molar value. Blank lines part the entries; values can stand above or below the molecule they belong to.

Columns and labels:
[1] = biological target: human D2 receptor (Homo sapiens (Human), UniProt P14416); test: Test 1: binding activity for human D2 receptor ([3H]Spiperone, CHO cell membrane fraction); conditions: human D2 receptor, [3H]Spiperone
Protocol: (§1) Test 1: Evaluation of Binding Activity for Human 5-HT1A Receptor, Human 5-HT2A Receptor, and Human D2 Receptor
(§2) Binding affinity of the present compound for human 5-HT1A receptor, human 5-HT2A receptor, and human D2 receptor was measured by the following procedures.
(§3) Each mixture was incubated at room temperature for 60 minutes. Then, the mixture was added quickly on a glassfiber filter plate (Multiscreen FB, Millipore, Inc.) coated with 0.3% aqueous polyethylenimine, and vacuum-filtered. Radioactivity remaining on the filter was measured with a liquid scintillation counter (PerkinElmer, Inc.). Binding inhibition rate was calculated from the following formula.
Ki of each compound was calculated from the following formula. Binding inhibition constant (Ki)=IC50/(1+S/Kd) wherein S is concentration of ligand; Kd is a binding dissociation constant of ligand to membrane, which is calculated from a saturated binding experiment conducted with the same cell membrane. A small Ki value means strong binding ability to a receptor.

[2] = biological target: T1, human 5-HT1A receptor (Homo sapiens (Human), UniProt P08908); test: Test 2: agonist activity for human 5-HT1A receptor ([35S]GTPγS binding); type: biochemical; conditions: for pEC50: [35S]GTPγS binding, concentration at which half the activity of Emax was obtained; for Emax at 10 µM: agonist activity in the presence of 10 μM of compound, relative to 100 μmol/L 5-HT
Protocol: Test 2: Evaluation of Agonist Activity for Human 5-HT1A Receptor
CHO cell membrane fraction in which human 5-HT1A receptor was expressed as used in Test 1 was purchased. To a buffer containing guanosine diphosphate were added a test compound dissolved in DMSO, each receptor membrane sample diluted with buffer, and [^35S] Guanosine 5′-O-[gamma-thio]triphosphate (GTPγS). The mixture was incubated at room temperature for 60 minutes. Then, the mixture was added quickly on a glassfiber filter plate (Multiscreen FB, Millipore, Inc.), and vacuum-filtered. Radioactivity remaining on the […] was measured with a liquid scintillation counter. Agonist activity was calculated from the following formula.

[3] = Test 4: metabolic stability test in human hepatic microsome; type: in vitro ADME; conditions: 0.1 mg/mL microsome, 0.1 μmol/L compound, 37° C., 30 minutes
Protocol: Test 4: Metabolic Stability Test in Human Hepatic Microsome
The stability of the present compound in human hepatic microsome metabolism was evaluated as mentioned below. Human hepatic microsome was obtained from Xenontech. Human hepatic microsome, NADPH, and each test compound were mixed in 25 mmol/L phosphate buffer solution (pH 7.4) to reach the following concentrations as shown below, and the mixture was incubated at 37° C. for 30 minutes. • Human hepatic microsome: 0.1 mg/mL • NAPDH: 3.2 mmol/L • Test compound: 0.1 μmol/L
The residual ratio of the test compound in each sample after 30 minutes was measured by LC-MS, and the metabolic stability in human hepatic microsome was calculated from the following formula. Metabolic stability in human hepatic microsome (mL/min/mg protein)=−LN (residual ratio)/30/0.1

[4] = biological target: hERG channel (Homo sapiens (Human), UniProt Q12809); test: Test 6-1: inhibitory activity for hERG channel (auto patch clamp, Qpatch); type: cell-based; conditions: whole cell auto patch clamp, hERG-CHO cells; read-out: hERG inhibition IC50
Protocol: Test 6-1: Evaluation of Inhibitory Activity for hERG Channel
Inhibitory activity of the present compound for hERG channel was measured by whole cell patch clamp method with an auto patch clamp system using CHO cells in which hERG channel involved in human rapidly activating delayed rectifier potassium current (IKr) was forcibly expressed.
hERG-CHO cells purchased from ChanTest Cop. were cultured in a CO2 incubator at 37° C., and dissociated from a flask with trypsin shortly before the measurement of hERG current, to prepare a cell suspension.
Extracellular fluid: 2 mmol/L CaCl2, 1 mmol/L MgCl2, 10 mmol/L HEPES, 4 mmol/L KCl, 145 mmol/L NaCl, 10 mmol/L Glucose
Intracellular fluid: 5.4 mmol/L CaCl2, 1.8 mmol/L MgCl2, 10 mmol/L HEPES, 31 mmol/L KOH, 10 mmol/L EGTA, 120 mmol/L KCl, 4 mmol/L Na2-ATP
Test compound solution: Test compound was dissolved in DMSO to reach the concentration of 2 mmol/L or 20 mmol/L, in order to prepare a test compound solution. […] (Measurement of Current Value and Data Analysis)
The cell suspension, the extracellular fluid, the intracellular fluid, and the measurement plate were set in the auto patch clamp system, and hERG current was measured by whole cell patch clamp method. […] Each pulse interval was 15 seconds. The data analysis was carried out with Qpatch Assay Software (Biolin Scientific). The test was carried out by applying incrementally 4 concentrations of each test compound, and the average of the maximum peak tail currents which were obtained from the last 3 stimulations in each concentration was determined as the evaluated data. Based on the current inhibition rate for a pre-applied current at each concentration of each test compound, IC50 value was calculated by Hill equation with the software.

[5] = biological target: T1, human 5-HT1A receptor; test: Test 1: binding activity for human 5-HT1A receptor ([3H]8-OH-DPAT, CHO cell membrane fraction)
Protocol: as §1, §2, §3
IC50 value was calculated by Hill analysis (Physiology, 1910, 40, 190-200). Ki of each compound was calculated from the following formula. Binding inhibition constant (Ki)=IC50/(1+S/Kd) wherein S is concentration of ligand; Kd is a binding dissociation constant of ligand to membrane, which is calculated from a saturated binding experiment conducted with the same cell membrane. A small Ki value means strong binding ability to a receptor.

Chain of human D2 receptor (P14416 whole entry): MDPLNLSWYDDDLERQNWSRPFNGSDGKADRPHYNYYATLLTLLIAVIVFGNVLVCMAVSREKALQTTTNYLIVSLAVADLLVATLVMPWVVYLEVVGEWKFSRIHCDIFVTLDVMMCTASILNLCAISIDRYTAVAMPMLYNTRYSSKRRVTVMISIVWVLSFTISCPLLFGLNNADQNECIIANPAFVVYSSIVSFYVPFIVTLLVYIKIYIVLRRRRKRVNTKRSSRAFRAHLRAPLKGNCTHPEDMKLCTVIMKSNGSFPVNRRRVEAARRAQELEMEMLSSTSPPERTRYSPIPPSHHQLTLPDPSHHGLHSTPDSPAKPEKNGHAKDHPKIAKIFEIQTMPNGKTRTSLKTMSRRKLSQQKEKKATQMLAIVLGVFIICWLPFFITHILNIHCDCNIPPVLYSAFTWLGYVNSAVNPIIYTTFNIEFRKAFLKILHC
Chain of hERG channel (Q12809 whole entry): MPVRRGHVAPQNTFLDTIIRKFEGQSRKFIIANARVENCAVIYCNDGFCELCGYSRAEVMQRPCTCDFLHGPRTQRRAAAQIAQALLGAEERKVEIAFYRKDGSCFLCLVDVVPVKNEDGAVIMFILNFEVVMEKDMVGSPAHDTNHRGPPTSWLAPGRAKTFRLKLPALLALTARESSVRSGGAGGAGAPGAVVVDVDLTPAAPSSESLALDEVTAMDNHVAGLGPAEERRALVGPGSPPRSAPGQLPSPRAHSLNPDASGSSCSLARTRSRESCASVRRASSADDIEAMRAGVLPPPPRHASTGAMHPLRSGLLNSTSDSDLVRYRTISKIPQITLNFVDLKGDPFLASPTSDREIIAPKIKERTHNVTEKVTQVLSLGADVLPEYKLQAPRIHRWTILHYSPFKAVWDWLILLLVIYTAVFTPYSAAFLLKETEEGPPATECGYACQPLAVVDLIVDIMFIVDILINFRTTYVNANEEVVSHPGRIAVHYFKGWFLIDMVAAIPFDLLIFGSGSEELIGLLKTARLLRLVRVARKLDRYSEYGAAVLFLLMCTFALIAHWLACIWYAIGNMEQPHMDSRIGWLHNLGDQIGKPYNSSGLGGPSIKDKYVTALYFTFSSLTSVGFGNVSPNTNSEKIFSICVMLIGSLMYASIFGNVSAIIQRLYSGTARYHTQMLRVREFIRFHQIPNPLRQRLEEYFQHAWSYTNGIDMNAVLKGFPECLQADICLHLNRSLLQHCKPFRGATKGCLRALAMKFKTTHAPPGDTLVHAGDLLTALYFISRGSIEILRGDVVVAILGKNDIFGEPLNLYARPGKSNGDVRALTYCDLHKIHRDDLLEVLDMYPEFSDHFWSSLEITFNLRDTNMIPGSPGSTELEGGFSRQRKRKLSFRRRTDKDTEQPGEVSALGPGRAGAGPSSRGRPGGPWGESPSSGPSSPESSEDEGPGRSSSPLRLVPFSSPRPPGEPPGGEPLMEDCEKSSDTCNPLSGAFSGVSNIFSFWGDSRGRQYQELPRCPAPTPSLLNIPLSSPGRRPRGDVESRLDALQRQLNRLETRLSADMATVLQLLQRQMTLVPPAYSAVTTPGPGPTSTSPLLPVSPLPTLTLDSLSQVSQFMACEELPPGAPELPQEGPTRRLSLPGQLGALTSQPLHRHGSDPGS
T1 sequence (P08908 whole entry): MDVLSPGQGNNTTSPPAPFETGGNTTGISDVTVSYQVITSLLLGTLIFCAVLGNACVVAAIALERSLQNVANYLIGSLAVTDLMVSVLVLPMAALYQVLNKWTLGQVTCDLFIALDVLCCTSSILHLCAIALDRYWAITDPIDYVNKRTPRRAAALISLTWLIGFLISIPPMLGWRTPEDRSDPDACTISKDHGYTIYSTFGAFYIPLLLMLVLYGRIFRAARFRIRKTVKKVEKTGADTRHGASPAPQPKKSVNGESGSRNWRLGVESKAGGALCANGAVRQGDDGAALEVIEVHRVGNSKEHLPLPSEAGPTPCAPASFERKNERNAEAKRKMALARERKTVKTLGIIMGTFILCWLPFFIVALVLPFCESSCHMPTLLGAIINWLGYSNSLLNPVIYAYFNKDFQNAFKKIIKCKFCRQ

SMILES: CCc1ncc2c(n1)CCN(CCN1CCN(c3nsc4ccccc34)CC1)C2=O [Example 93, 6-{2-[4-(1,2-Benzoisothiazol-3-yl)piperazin-1-yl]ethyl}-2-ethyl-7,8-dihydropyrido[4,3-d]pyrimidin-5(6H)-one]
- pKi [1]: 6.08
- pEC50 [2]: 7.82
- Emax at 10 µM [2]: 41%
- Metabolic stability in human hepatic microsome [3]: 0.149 mL/min/mg protein
- pIC50 [4]: 5.18
- pKi [5]: 8.03

SMILES: O=C1c2cnc(C3CC3)nc2CCN1CCN1CCN(c2nsc3ccccc23)CC1 [Example 94]
- pKi [1]: 6.63
- pEC50 [2]: 7.10
- Emax at 10 µM [2]: 53%
- Metabolic stability in human hepatic microsome [3]: 0.368 mL/min/mg protein
- pIC50 [4]: 5.64
- pKi [5]: 8.28

SMILES: Cc1ncc2c(n1)CCC(CCN1CCC(c3noc4ccccc34)CC1)C2=O (stereo not drawn) [Example 150]
- pKi [1]: 6.73
- pEC50 [2]: 7.43
- Emax at 10 µM [2]: 54%
- Metabolic stability in human hepatic microsome [3]: <0.05 mL/min/mg protein
- pIC50 [4]: 5.92
- pKi [5]: 8.27

SMILES: COc1cc2c(cn1)C(=O)N(CCN1CCN(c3noc4ccccc34)CC1)CC2 [Example 20]
- pKi [1]: 5.72
- pEC50 [2]: 8.33
- Emax at 10 µM [2]: 52%
- Metabolic stability in human hepatic microsome [3]: 0.091 mL/min/mg protein
- pIC50 [4]: 5.27
- pKi [5]: 9.11

SMILES: O=C1c2occc2CCN1CCN1CCC(c2noc3ccccc23)CC1 [Example 127]
- pKi [1]: 6.69
- pEC50 [2]: 7.24
- Emax at 10 µM [2]: 48%
- Metabolic stability in human hepatic microsome [3]: <0.05 mL/min/mg protein
- pIC50 [4]: 6.22
- pKi [5]: 7.45

SMILES: CCn1ncc2c1CCN(CCN1CCN(c3nsc4ccccc34)CC1)C2=O [Example 64]
- pKi [1]: 6.37
- pEC50 [2]: 6.72
- Emax at 10 µM [2]: 69%
- Metabolic stability in human hepatic microsome [3]: 0.064 mL/min/mg protein
- pIC50 [4]: 5.11
- pKi [5]: 7.76

SMILES: O=c1c2cnccc2ccn1CCN1CCN(c2nsc3ccccc23)CC1 [Example 11]
- pKi [1]: 6.50
- Metabolic stability in human hepatic microsome [3]: 0.245 mL/min/mg protein
- pIC50 [4]: 5.59
- pKi [5]: 8.53

SMILES: O=C1c2oc(C3CC3)nc2CCN1CCN1CCN(c2nsc3ccccc23)CC1 [Example 67]
- pEC50 [2]: 8.50
- Emax at 10 µM [2]: 65%
- Metabolic stability in human hepatic microsome [3]: 0.269 mL/min/mg protein
- pIC50 [4]: 5.80
- pKi [5]: 8.93

SMILES: CC(C)n1ncc2c1CCN(CCN1CCN(c3nsc4ccccc34)CC1)C2=O [Example 158]
- pKi [1]: 6.49
- pEC50 [2]: 6.04
- Emax at 10 µM [2]: 12%
- Metabolic stability in human hepatic microsome [3]: 0.113 mL/min/mg protein
- pKi [5]: 6.66

SMILES: O=C1c2cnn(C3CC3)c2CCN1CCN1CCN(c2nsc3ccccc23)CC1 [Example 160]
- pKi [1]: 6.77
- pEC50 [2]: 6.07
- Emax at 10 µM [2]: 43%
- Metabolic stability in human hepatic microsome [3]: 0.13 mL/min/mg protein
- pKi [5]: 7.69

SMILES: O=c1c2cnc(C3CC3)nc2ccn1CCN1CCN(c2nsc3ccccc23)CC1 [Example 182]
- pKi [1]: 5.85
- pEC50 [2]: 8.11
- Emax at 10 µM [2]: 40%
- Metabolic stability in human hepatic microsome [3]: 0.726 mL/min/mg protein
- pKi [5]: 7.96

SMILES: CC(C)c1ncc2c(=O)n(CCN3CCN(c4nsc5ccccc45)CC3)ccc2n1 [Example 181]
- pKi [1]: 5.43
- pEC50 [2]: 7.10
- Emax at 10 µM [2]: 53%
- Metabolic stability in human hepatic microsome [3]: 0.791 mL/min/mg protein
- pKi [5]: 7.31

SMILES: Cc1ncc2c(=O)n(CCN3CCN(c4nsc5ccccc45)CC3)ccc2n1 [Example 95]
- pKi [1]: 5.59
- pEC50 [2]: 7.11
- Emax at 10 µM [2]: 62%
- Metabolic stability in human hepatic microsome [3]: 0.143 mL/min/mg protein
- pKi [5]: 8.10

More lines, main results first:

- pKi [1]: 6.87
- pEC50 [2]: 8.54
- Emax at 10 µM [2]: 42%
- Metabolic stability in human hepatic microsome [3]: <0.01 mL/min/mg protein
- pKi [5]: 9.82
SMILES: COc1cc2c(cn1)C(=O)N(CCN1CCC(c3noc4ccccc34)CC1)CC2 [Example 14]
- pIC50 [4]: 6.10

- pKi [1]: 7.03
- Emax at 10 µM [2]: 76%
- Metabolic stability in human hepatic microsome [3]: 0.458 mL/min/mg protein
- pKi [5]: 9.92
SMILES: Cc1nccc2c1C(=O)N(CCN1CCC(c3noc4ccccc34)CC1)CC2 [Example 87]
- pIC50 [4]: 6.30

- pKi [1]: 6.13
- pEC50 [2]: 7.51
- Emax at 10 µM [2]: 46%
- Metabolic stability in human hepatic microsome [3]: <0.05 mL/min/mg protein
- pKi [5]: 8.29
SMILES: Cn1cc2c(n1)C(=O)N(CCN1CCC(c3noc4ccccc34)CC1)CC2 [Example 156]
- pIC50 [4]: 5.68

- pEC50 [2]: 7.16
- Emax at 10 µM [2]: 48%
- Metabolic stability in human hepatic microsome [3]: 0.097 mL/min/mg protein
- pKi [5]: 7.93
SMILES: CC(C)c1nc2c(o1)C(=O)N(CCN1CCC(c3noc4ccccc34)CC1)CC2 [Example 164]
- pIC50 [4]: 6.00

- pKi [1]: 6.43
- pEC50 [2]: 6.07
- Emax at 10 µM [2]: 18%
- Metabolic stability in human hepatic microsome [3]: <0.05 mL/min/mg protein
- pKi [5]: 6.59
SMILES: CC(C)n1ncc2c1CCN(CCN1CCC(c3noc4ccccc34)CC1)C2=O [Example 159]

- pEC50 [2]: 6.16
- Emax at 10 µM [2]: 49%
- Metabolic stability in human hepatic microsome [3]: <0.05 mL/min/mg protein
- pKi [5]: 7.01
SMILES: O=C1c2cn[nH]c2CCN1CCN1CCC(c2noc3ccccc23)CC1 [Example 189, 5-{2-[4-(1,2-Benzoisoxazol-3-yl)piperidin-1-yl]ethyl}-1,5,6,7-tetrahydro-4H-pyrazolo[4,3-c]pyridin-4-one]
- pIC50 [4]: 5.74
